The source made the active and inactive calls.
What was measured:
[1] = inhibitors of firefly luciferase expression or activity, dose response, H4 neuroglioma cells, luminescence (AID 1990); format: functional, cell-based
[2] = luciferase reporter signal reduction – luminescence, H4-C neuroglioblastoma cells, dose response (AID 2458); format: functional, cell-based;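 also: H4 neuroglioblastoma cells stably carrying a luciferase reporter gene fusion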
cells = format: functional, cell-based
[3] = Luminescence Cell-Based Dose Response HTS to Identify Inhibitors of 5'UTR Stem-Loop Driven Prion Protein mRNA Translation in H4 Neuroglioblastoma Cells. [Related pubchem assays: 1827 (Project Summary), 1813 (Primary HTS)]; format: functional
[4] = inhibitors of SNCA 5'UTR-driven reporter translation, confirmation, H4 neuroglioma cells, luminescence (AID 1988); format: functional, cell-based
[5] = inhibitors of SNCA 5'UTR-driven translation, confirmation, luminescence, H4 neuroglioblastoma cells, dose confirmation (AID 2454); format: functional, cell-based;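 also: H4 neuroglioblastoma cells carrying an alpha-synuclein 5'UTR luciferase reporter; potency for inhibition of the luciferase signal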
[6] = cytotoxicity in HEK-293T cells, dose response, cytotoxicity control for TCR NF-kB inhibitor project, luminescence, T-cell screen hits (AID 489026); format: functional, cell-based;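 also: cells exposed to compound about 14 hours before the viability readout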
Cytochrome P450 2C9 = Cytochrome P450 2C9 (Homo sapiens, UniProt P11712); conditions: Potency
Sequence of Cytochrome P450 2C9 (P11712 whole entry): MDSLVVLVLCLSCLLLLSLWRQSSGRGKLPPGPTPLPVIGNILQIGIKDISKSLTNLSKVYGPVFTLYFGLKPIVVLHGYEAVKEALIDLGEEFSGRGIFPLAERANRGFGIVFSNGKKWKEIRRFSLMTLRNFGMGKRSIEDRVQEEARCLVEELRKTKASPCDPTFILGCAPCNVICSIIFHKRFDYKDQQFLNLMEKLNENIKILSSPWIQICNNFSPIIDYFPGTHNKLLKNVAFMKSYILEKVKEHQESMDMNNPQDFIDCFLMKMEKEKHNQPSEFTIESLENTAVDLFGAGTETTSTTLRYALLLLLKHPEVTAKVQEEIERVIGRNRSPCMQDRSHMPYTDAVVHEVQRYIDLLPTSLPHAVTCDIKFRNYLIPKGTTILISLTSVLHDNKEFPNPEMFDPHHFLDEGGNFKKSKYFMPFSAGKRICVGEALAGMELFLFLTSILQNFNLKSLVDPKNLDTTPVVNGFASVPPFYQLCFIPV

Aspartyl aminopeptidase = target: T1, Aspartyl aminopeptidase (Plasmodium falciparum 3D7, UniProt Q8I2J3)
T1 sequence (Q8I2J3 whole entry): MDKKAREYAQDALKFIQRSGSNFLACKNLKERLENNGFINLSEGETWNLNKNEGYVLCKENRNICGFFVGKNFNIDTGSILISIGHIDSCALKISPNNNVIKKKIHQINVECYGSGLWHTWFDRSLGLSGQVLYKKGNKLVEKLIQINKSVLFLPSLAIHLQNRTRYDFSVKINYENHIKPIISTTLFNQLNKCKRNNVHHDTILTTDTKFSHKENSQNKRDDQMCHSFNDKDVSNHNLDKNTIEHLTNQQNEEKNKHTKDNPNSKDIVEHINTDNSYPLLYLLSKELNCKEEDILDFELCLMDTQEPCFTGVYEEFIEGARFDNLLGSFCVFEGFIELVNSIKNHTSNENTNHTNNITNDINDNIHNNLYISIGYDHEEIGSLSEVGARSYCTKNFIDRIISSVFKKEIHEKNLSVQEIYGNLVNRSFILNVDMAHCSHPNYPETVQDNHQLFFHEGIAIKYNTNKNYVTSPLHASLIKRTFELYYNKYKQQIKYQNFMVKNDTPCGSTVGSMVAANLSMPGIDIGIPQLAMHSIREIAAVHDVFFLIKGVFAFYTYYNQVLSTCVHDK

Procathepsin L = Procathepsin L (Homo sapiens, UniProt P07711)
Sequence of Procathepsin L (P07711 whole entry): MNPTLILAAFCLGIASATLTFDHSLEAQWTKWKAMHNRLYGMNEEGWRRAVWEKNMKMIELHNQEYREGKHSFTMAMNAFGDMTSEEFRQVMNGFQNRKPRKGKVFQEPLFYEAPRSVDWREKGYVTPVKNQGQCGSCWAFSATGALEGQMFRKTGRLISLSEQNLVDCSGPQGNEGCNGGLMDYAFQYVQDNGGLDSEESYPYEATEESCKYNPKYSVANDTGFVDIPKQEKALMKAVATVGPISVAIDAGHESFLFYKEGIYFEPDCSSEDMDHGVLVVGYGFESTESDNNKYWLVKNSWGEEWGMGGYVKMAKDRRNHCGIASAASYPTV

[7] = target: Lysosomal acid glucosylceramidase (Homo sapiens, UniProt P04062); assay: Dose response cell-based high throughput screening assay to identify enhancers of beta-glucosidase activity. [Related pubchem assays: 784 ]; format: functional
Sequence of Lysosomal acid glucosylceramidase (P04062 whole entry): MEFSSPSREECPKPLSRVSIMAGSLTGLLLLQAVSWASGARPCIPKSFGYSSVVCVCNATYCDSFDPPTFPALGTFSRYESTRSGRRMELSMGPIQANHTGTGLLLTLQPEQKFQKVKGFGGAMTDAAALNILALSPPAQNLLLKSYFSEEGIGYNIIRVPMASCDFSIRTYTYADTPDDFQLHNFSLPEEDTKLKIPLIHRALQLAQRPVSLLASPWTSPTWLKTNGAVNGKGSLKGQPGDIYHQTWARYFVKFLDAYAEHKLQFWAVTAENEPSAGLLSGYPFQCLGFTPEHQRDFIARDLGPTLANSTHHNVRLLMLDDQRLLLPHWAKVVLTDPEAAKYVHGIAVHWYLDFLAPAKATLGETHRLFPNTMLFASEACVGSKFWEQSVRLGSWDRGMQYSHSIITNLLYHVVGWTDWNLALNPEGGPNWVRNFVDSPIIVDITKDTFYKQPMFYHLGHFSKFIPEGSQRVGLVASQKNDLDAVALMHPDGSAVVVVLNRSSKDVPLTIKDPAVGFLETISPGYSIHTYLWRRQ

[8] = Counterscreen for IDE inhibitors: Luminescence-based cell-based high throughput dose response assay to identify compounds that are cytotoxic to HEK cells. [Related pubchem assays: 434962 (Primary screen (IDE inhibitors in singlicate)), 449730 (Counterscreen (Cytotoxicity in triplicate)), 435028 (Confirmation (IDE inhibitors in triplicate)) …; format: functional; conditions: HEK293
Large T antigen = Large T antigen (Simian virus 40, UniProt P03070); format: functional, Betapolyomavirus macacae;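 also: Confirmatory-stage PubChem screen for compounds that inhibit SV40 T antigen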
Sequence of Large T antigen (P03070 whole entry): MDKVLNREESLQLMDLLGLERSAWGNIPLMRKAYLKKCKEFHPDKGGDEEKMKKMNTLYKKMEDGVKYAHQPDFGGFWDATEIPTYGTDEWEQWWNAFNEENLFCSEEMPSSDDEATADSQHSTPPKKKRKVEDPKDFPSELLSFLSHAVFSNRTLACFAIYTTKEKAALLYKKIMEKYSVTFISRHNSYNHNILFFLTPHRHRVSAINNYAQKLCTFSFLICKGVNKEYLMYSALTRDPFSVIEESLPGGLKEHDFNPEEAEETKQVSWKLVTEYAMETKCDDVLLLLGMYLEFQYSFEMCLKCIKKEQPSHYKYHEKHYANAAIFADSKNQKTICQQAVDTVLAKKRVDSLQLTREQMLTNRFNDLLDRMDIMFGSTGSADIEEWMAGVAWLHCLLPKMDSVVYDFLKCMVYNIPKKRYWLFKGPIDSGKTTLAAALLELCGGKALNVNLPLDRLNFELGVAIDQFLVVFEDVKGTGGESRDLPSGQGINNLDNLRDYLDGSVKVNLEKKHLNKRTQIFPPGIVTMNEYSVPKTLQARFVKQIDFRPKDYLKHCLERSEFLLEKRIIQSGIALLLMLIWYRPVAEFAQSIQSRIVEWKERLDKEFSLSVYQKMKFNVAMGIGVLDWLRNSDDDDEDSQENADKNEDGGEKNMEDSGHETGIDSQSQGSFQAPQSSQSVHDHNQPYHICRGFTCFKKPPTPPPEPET

[9] = target: T2, Calpain-2 catalytic subunit (Sus scrofa, UniProt P43367); assay: pig calpain II inhibitor potency, dose response, biochemical, fluorogenic peptide substrate (AID 1420); format: functional
T2 sequence (P43367 whole entry): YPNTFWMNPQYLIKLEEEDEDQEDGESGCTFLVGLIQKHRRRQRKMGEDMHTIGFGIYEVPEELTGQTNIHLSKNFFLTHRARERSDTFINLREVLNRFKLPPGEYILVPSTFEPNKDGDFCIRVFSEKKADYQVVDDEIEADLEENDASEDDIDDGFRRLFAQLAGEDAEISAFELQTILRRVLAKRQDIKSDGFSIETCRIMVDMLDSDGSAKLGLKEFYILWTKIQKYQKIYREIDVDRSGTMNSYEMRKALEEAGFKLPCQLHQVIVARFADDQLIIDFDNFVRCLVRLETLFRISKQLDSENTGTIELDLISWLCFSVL

Insulin-degrading enzyme = target: T3, Insulin-degrading enzyme (Homo sapiens, UniProt P14735); assay: Dose Response: Fluorescence polarization-based cell-based high throughput dose response assay for inhibitors of insulin-degrading enzyme (IDE). [Related pubchem assays: 434962 (Primary screen (IDE inhibitors in singlicate)), 449730 (Counterscreen (Cytotoxicity in triplicate)), 435028 (Confirmation (IDE inhibitors in triplicate)), 434984 (Summary …; format: functional
T3 sequence (P14735 whole entry): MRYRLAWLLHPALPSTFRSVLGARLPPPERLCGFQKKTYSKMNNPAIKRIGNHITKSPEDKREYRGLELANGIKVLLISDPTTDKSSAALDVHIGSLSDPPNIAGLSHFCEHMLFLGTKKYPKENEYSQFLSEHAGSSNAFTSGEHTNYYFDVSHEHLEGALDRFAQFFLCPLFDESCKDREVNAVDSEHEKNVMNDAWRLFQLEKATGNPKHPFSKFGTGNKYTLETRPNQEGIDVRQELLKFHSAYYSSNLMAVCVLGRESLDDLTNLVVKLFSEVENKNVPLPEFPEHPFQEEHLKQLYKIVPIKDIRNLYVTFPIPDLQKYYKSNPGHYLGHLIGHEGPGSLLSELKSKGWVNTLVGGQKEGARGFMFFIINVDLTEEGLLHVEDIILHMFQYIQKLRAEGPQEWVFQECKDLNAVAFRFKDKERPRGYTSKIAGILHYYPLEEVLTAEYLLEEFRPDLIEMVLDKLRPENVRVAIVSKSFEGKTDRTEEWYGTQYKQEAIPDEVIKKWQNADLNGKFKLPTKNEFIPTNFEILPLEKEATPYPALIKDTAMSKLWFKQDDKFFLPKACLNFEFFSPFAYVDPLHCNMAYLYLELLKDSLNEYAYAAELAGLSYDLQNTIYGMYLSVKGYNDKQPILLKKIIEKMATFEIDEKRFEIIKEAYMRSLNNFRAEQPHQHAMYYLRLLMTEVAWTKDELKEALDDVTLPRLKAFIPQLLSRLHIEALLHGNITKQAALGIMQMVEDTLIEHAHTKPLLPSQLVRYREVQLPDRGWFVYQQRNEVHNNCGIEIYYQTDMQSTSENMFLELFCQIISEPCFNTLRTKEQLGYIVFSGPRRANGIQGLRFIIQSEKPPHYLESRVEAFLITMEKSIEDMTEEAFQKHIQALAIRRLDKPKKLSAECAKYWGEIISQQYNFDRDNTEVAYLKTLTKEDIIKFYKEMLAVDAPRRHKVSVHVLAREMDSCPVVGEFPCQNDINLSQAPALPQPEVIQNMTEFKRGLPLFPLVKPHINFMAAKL

[10] = target: T4, Histone-lysine N-methyltransferase NSD2 (Homo sapiens, UniProt O96028); format: biochemical
T4 sequence (O96028 whole entry): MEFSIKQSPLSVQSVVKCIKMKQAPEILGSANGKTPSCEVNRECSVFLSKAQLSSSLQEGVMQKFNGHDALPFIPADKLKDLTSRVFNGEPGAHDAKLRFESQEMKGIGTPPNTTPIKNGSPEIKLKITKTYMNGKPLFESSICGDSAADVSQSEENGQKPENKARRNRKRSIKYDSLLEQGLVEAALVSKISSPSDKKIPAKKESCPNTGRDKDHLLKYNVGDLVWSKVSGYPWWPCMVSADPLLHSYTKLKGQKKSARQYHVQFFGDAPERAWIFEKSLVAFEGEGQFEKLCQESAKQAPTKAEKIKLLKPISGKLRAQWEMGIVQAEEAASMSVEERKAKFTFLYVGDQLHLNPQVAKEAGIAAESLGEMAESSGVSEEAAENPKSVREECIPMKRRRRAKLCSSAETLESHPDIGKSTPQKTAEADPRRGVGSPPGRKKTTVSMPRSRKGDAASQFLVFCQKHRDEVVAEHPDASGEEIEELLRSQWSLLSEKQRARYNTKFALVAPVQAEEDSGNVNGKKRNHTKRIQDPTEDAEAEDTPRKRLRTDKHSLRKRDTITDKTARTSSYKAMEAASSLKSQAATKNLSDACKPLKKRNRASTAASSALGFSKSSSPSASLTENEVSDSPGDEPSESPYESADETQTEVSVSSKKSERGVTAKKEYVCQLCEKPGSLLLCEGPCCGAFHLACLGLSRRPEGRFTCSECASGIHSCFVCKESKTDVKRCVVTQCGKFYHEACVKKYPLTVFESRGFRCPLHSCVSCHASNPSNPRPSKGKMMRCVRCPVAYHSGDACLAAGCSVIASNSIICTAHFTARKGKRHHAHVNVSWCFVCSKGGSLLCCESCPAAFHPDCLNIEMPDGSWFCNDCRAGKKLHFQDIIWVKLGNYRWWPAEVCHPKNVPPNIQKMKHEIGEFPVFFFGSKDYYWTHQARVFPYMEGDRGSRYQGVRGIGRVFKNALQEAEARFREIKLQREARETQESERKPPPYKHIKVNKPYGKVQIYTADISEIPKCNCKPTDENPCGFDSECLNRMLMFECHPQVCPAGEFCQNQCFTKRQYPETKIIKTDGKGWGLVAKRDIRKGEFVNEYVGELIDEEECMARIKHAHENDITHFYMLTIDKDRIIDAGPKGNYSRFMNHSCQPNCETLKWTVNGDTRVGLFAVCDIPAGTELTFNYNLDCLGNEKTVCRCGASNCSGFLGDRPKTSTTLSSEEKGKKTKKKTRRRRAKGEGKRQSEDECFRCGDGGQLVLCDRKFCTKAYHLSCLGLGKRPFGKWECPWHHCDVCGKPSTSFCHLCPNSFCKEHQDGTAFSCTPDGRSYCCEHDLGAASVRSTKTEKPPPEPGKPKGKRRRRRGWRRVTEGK

[11] = target: T5, Eukaryotic translation initiation factor 2-alpha kinase 3 (Homo sapiens, UniProt Q9NZJ5); assay: Dose response cell-based high-throughput screening assay to measure PERK inhibition. [Related pubchem assays: 1416 ]; format: functional
T5 sequence (Q9NZJ5 whole entry): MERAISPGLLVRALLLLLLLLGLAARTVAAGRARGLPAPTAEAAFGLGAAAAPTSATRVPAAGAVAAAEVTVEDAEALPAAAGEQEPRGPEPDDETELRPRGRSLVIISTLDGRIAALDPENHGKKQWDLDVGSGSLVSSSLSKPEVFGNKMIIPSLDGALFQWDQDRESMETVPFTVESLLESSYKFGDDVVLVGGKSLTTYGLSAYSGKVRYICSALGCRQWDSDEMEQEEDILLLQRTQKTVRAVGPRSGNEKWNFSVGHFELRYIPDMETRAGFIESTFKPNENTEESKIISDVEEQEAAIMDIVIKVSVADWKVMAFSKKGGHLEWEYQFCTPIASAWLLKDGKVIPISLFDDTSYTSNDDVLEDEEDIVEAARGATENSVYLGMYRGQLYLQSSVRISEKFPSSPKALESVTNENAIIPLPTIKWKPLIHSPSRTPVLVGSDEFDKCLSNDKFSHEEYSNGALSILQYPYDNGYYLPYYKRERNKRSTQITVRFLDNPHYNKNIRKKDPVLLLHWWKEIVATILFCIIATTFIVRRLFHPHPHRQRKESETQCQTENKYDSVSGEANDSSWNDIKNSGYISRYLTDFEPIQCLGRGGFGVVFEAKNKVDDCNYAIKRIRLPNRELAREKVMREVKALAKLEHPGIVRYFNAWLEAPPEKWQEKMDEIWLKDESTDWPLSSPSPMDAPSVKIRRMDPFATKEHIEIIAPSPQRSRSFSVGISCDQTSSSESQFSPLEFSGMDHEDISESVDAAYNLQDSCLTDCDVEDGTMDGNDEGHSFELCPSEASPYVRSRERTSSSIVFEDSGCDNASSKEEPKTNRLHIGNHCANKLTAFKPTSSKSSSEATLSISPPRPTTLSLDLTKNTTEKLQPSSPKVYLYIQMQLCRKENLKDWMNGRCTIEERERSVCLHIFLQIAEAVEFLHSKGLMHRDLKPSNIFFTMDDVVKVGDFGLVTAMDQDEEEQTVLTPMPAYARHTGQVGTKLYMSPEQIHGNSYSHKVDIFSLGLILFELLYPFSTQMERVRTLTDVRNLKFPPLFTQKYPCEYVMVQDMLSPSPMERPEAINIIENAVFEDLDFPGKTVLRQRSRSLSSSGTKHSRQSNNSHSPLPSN

[12] = target: T5, Eukaryotic translation initiation factor 2-alpha kinase 3; assay: Counterscreen assay for PERK inhibitors: Dose response cell-based high throughput screening assay to measure inhibition of PERK at 6 hours. [Related pubchem assays: 1522, 1416 ]; format: functional

CC1=C([N+](=O)[O-])C(c2ccccc2)C2=C(O)c3ccccc3C2=N1 (configuration not stated)
EC50 [1]: 7.36 µM (active)
EC50 [2]: > 12 µM (not active)
EC50 (cells): > 12 µM (not active)
EC50 [3]: 4.95 µM (active)
EC50 [4]: < 0.1 µM (active)
EC50 [5]: 4.09 µM (active)
IC50 [6]: 58.8 µM (inactive)

CC(C)C[C@@H](CC(=O)N[C@@H](CCCN)CC(=O)N[C@@H]1CCNC[C@H]1C(=O)N[C@H](CC(=O)N[C@@H](CCC(=O)O)CC(=O)O)Cc1c[nH]c2ccccc12)NC(=O)[C@@H]1CCCC[C@H]1N
AC50 (Cytochrome P450 2C9): 31.6 µM (inconclusive)

O=C1/C(=C/Nn2cnnc2)c2ccccc2C(=O)N1c1ccccc1
IC50 (Aspartyl aminopeptidase): 1.86 µM (active)
IC50 (Procathepsin L): > 59.6 µM (not active)

CCOC(=O)N1CCN(C(=O)c2ccc3c(=O)n(Cc4ccccc4)c(=S)[nH]c3c2)CC1
EC50 [7]: > 10 µM (not active)

Cc1cccn2c(=O)c3cc(C(=O)NCCCn4ccnc4)n(C)c3nc12
EC50 [7]: > 10 µM (not active)

CN1CCC/C1=C/C=C1\SC(=S)NC1=O
IC50 [8]: > 55.6 µM (not active)
IC50 (Large T antigen): 30.2 µM (active)
IC50 [9]: 13.4 µM (not active)
IC50 (Insulin-degrading enzyme): 8.16 µM (active)
AC50 [10]: > 20 µM (inactive)

COC(=O)CN(n1cnnc1)S(=O)(=O)c1ccccc1Cl
IC50 (Aspartyl aminopeptidase): 0.381 µM (active)
IC50 (Procathepsin L): > 59.6 µM (not active)

C=C(C)C(O)/C=C/c1ccc(C)cc1 (configuration not stated)
AC50 (Cytochrome P450 2C9): 3.16 µM (inconclusive)

Cc1ccc2cc(/C=N/Nc3nc4ccccc4[nH]3)c(Cl)nc2c1
EC50 [11]: > 55.7 µM (not active)
EC50 [12]: > 55.7 µM (not active)

From ChEMBL document CHEMBL1201862, “PubChem BioAssay data set” (2004)
